Where two headings read alike, the source gives them in different places.
Test system: H460 non-small cell lung cancer human tumor cell line
Experiment: In vitro human tumor cell line cytotoxicity (proliferation) assay on H460, CTG, with or without AST-3021
Type: cell-based
Details: for IC50: Homo sapiens
Experimental: In vitro human tumor cell line cytotoxicity assay was used.
In vitro proliferation data on the H460 non-small cell lung cancer human tumor cell line (cell line which highly expresses AKR1C3) is reported below in the compound table.
IC50 values were obtained with the following steps:
Specifically, exponentially growing cells were seeded at a density of 2×10^3 cells/100 μL/well in a 96-well plate and incubated at 37° C. in 5% CO2, 95% air and 100% relative humidity for 24 hours. The test compound was administered alone: 24 hours after cell plating, the compound acted alone, 99 μL of growth medium per well was added, and 1 μL of the compound prepared at 200× was added, and the plate was shaken gently to ensure even mixing, then placed into an incubator of 37° C., 5% CO2. After further cultivation for 72 hours, the number of live cells was detected using CTG. The CTG detection method was as follows: the cell plate to be tested was placed at room temperature to equilibrate for 30 minutes, and 100 μL of medium per well was discarded. 25 μL of CTG reagent (CellTiter-Glo® kit) per well was added, and the plate was placed in a high-speed shaker to oscillate for 2 minutes, and placed at room temperature in the dark for 30 minutes. The chemiluminescence signal value was read using a multimode microplate reader, with a read time of 1000 ms.
Similarly, in order to further verify that the compounds were activated by human AKR1C3 (aldosterone reductase family 1 member C3), the effect of some of the compounds on the proliferation of H460 cancer cells was tested with pretreatment with a specific AKR1C3 enzyme inhibitor AST-3021 (3 μM). The detailed experimental procedure was as follows: 24 hours after cell plating, 98 μL of growth medium per well was added, and 1 μL of 200×compound AST-3021 was added to each well, and the plate was shaken gently to ensure even mixing, and then placed into an incubator; after 2 hours, 1 μL of the test compound prepared at 200× was added, and the plate was shaken gently to ensure even mixing and then laced into an incubator of 37° C., 5% CO2. The inhibitor used was compound 36, i.e.
in Flanagan et al., Bioorganic and Medicinal Chemistry (2014), page 962-977, and is referred to as AST-3021 in this invention. The values measured in this case are values corresponding to +AST-3021 IC50 (nM) in Table 1.
The value corresponding to +AST-3021 IC50 (nM) divided by the value corresponding to IC50 (nM) is the specific activation ratio. The relative magnitude of the specific activation ratio can be used to evaluate whether this compound is a cytotoxic compound activated by human AKR1C3 (aldosterone reductase family 1 member C3): when the specific activation ratio is less than 1, it is considered that the compound is not activated by human AKR1C3 (aldosterone reductase family 1 member C3); when the specific activation ratio is greater than 1, it is considered that the compound is activated by human AKR1C3 (aldosterone reductase family 1 member C3), and the higher the value, the higher the activation degree and the selectivity of AKR1C3.

[1] = NCI-H460, compound alone, 72 hours, read-out: IC50
[2] = NCI-H460, pretreatment with AKR1C3 inhibitor AST-3021 (3 μM), read-out: +AST-3021 IC50

SMILES	specific activation ratio (+AST-3021 IC50/IC50)	IC50 [1]	IC50 [2]
CNP(=O)(OCc1ccc([N+](=O)[O-])c(Oc2ccc(C(F)(F)F)cc2)c1)OCC1OC(n2ccc(N)nc2=O)C(F)(F)C1O (stereo not drawn) [Compound H5]	4.2	117 nM	499 nM
CCNP(=O)(OCc1ccc([N+](=O)[O-])c(Oc2ccc(C(F)(F)F)cc2)c1)OCC1OC(C2N=CC(N)=NC2=O)C(F)(F)C1O (stereo not drawn) [Compound H6]	12.9	178 nM	2300 nM
Nc1ccn(C2OC(COP(=O)(NCCBr)OCc3ccc([N+](=O)[O-])c(Oc4ccc(-c5ccc(F)cc5)c(F)c4)c3)C(O)C2(F)F)c(=O)n1 (stereo not drawn) [Compound H4]	6.2	5.15 nM	31.7 nM
CCNP(=O)(OCc1ccc([N+](=O)[O-])c(Oc2cccc(C(=O)N3CCC(C(F)(F)F)CC3)c2)c1)OCC1OC(n2ccc(N)nc2=O)C(F)(F)C1O (stereo not drawn) [Compound H16]	8.9	377 nM	3370 nM
CCNP(=O)(OCC1OC(n2ccc(N)nc2=O)C(F)(F)C1O)OC(C)c1ccc([N+](=O)[O-])c(Oc2cccc(C(=O)N3CCCCC3)c2)c1 (stereo not drawn) [Compound H25]	9.6	515 nM	4940 nM
Nc1ccn(C2OC(COP(=O)(OCc3ccc([N+](=O)[O-])c(Oc4ccc(-c5ccc(F)cc5)c(F)c4)c3)Oc3ccccc3)C(O)C2(F)F)c(=O)n1 (stereo not drawn) [Compound D6, reference compound]	0.54	20.6 nM	11.2 nM
CC(C)NP(=O)(OCc1ccc([N+](=O)[O-])c(Oc2ccc(-c3ccccc3F)cc2)c1)OCC1OC(n2ccc(N)nc2=O)C(F)(F)C1O (stereo not drawn) [Compound H43]	257.8	60 nM	15500 nM
CCNP(=O)(OCc1ccc([N+](=O)[O-])c(Oc2ccc3ncccc3c2)c1)OCC1OC(n2ccc(N)nc2=O)C(F)(F)C1O (stereo not drawn) [Compound H19]	3.4	150 nM	510 nM
CC(C)NP(=O)(OCc1ccc([N+](=O)[O-])c(Oc2ccc(-c3ccc(F)cc3)cc2)c1)OCC1OC(n2ccc(N)nc2=O)C(F)(F)C1O (stereo not drawn) [Compound H38]	507.6	65.2 nM	33100 nM
CC(C)NP(=O)(OCc1ccc([N+](=O)[O-])c(Oc2ccc(-c3ccc(Cl)cc3)cc2)c1)OCC1OC(n2ccc(N)nc2=O)C(F)(F)C1O (stereo not drawn) [Compound H40]	86.9	194 nM	16900 nM
CC(C)CNP(=O)(OCc1ccc([N+](=O)[O-])c(Oc2ccc(-c3ccc(F)cc3)c(F)c2)c1)OCC1OC(C2N=CC(N)=NC2=O)C(F)(F)C1O (stereo not drawn) [Compound H7]	61.3	26.8 nM	1640 nM
CCNP(=O)(OCC1OC(n2ccc(N)nc2=O)C(F)(F)C1O)OC(C)c1ccc([N+](=O)[O-])c(Oc2ccc(-c3ccc(F)cc3)c(F)c2)c1 (stereo not drawn) [Compound H21]	34.8	127 nM	4410 nM
NC1=NC(=O)C(C2OC(COP(=O)(NCc3ccccc3)OCc3ccc([N+](=O)[O-])c(Oc4ccc(C(F)(F)F)cc4)c3)C(O)C2(F)F)N=C1 (stereo not drawn) [Compound H9]	23.2	78.2 nM	1810 nM
CCN(CC)P(=O)(OCc1ccc([N+](=O)[O-])c(Oc2ccc(-c3ccc(F)cc3)c(F)c2)c1)OCC1OC(n2ccc(N)nc2=O)C(F)(F)C1O (stereo not drawn) [Compound D2, reference compound]	45.1	96.9 nM	4370 nM
CNP(=O)(OCc1ccc([N+](=O)[O-])c(Oc2ccc(-c3ccc(F)cc3)c(F)c2)c1)OCC1OC(n2ccc(N)nc2=O)C(F)(F)C1O (stereo not drawn) [Compound H1]	24.2	29.4 nM	712 nM
CCNP(=O)(OCc1ccc([N+](=O)[O-])c(Oc2ccc(-c3ccc(F)cn3)cc2)c1)OCC1OC(n2ccc(N)nc2=O)C(F)(F)C1O (stereo not drawn) [Compound H28]	20.4	233 nM	4760 nM
CC(C)NP(=O)(OCc1ccc([N+](=O)[O-])c(Oc2ccc(C(=O)N3CCCCC3)cc2)c1)OCC1OC(n2ccc(N)nc2=O)C(F)(F)C1O (stereo not drawn) [Compound H36]	3.1	382 nM	1170 nM
CCNP(=O)(OCc1ccc([N+](=O)[O-])c(Oc2ccc3nc(C)sc3c2)c1)OCC1OC(n2ccc(N)nc2=O)C(F)(F)C1O (stereo not drawn) [Compound H20]	6.2	232 nM	1430 nM
Nc1ccn(C2OC(COP(=O)(OCc3ccc([N+](=O)[O-])c(Oc4ccc(C(F)(F)F)cc4)c3)Oc3ccccc3)C(O)C2(F)F)c(=O)n1 (stereo not drawn) [Compound D7, reference compound]	0.77	50.3 nM	38.9 nM
Nc1ccn(C2OC(COP(=O)(NC3CCCCC3)OCc3ccc([N+](=O)[O-])c(Oc4ccc(-c5ccc(F)cc5)c(F)c4)c3)C(O)C2(F)F)c(=O)n1 (stereo not drawn) [Compound H17]	27.2	397 nM	10800 nM
CCNP(=O)(OCc1ccc([N+](=O)[O-])c(Oc2cccc(C(=O)N3CCCCC3)c2)c1)OCC1OC(n2ccc(N)nc2=O)C(F)(F)C1O (stereo not drawn) [Compound H15]	5.0	486 nM	2420 nM
CC(C)NP(=O)(OCc1ccc([N+](=O)[O-])c(Oc2ccc(-c3ccc(C(F)(F)F)cc3)cc2)c1)OCC1OC(n2ccc(N)nc2=O)C(F)(F)C1O (stereo not drawn) [Compound H39]	12.7	2180 nM	27700 nM
CC(OP(=O)(NCCBr)OCC1OC(n2ccc(N)nc2=O)C(F)(F)C1O)c1ccc([N+](=O)[O-])c(Oc2ccc(-c3ccc(F)cc3)c(F)c2)c1 (stereo not drawn) [Compound H22]	19.2	124 nM	2370 nM
CC(OP(=O)(OCC1OC(n2ccc(N)nc2=O)C(F)(F)C1O)N(C)C)c1ccc([N+](=O)[O-])c(Oc2ccc(-c3ccc(F)cc3)c(F)c2)c1 (stereo not drawn) [Compound D9, reference compound]	56.5	67.8 nM	3830 nM
Nc1ccn(C2OC(COP(=O)(NC3CCCCC3)OCc3ccc([N+](=O)[O-])c(Oc4ccc(C(F)(F)F)cc4)c3)C(O)C2(F)F)c(=O)n1 (stereo not drawn) [Compound H18]	3.7	461 nM	1700 nM
Nc1ccn(C2OC(COP(=O)(NC3CCCC3)OCc3ccc([N+](=O)[O-])c(Oc4ccc(-c5ccc(F)cc5)c(F)c4)c3)C(O)C2(F)F)c(=O)n1 (stereo not drawn) [Compound H29]	47.17	82.2 nM	3880 nM
CCNP(=O)(OCC1OC(n2ccc(N)nc2=O)C(F)(F)C1O)OC(C)c1ccc([N+](=O)[O-])c(Oc2ccc(C(=O)N3CCCCC3)cc2)c1 (stereo not drawn) [Compound H24]	19.1	1120 nM	21400 nM
CNP(=O)(OCC1OC(n2ccc(N)nc2=O)C(F)(F)C1O)OC(C)c1ccc([N+](=O)[O-])c(Oc2ccc(C(F)(F)F)cc2)c1 (stereo not drawn) [Compound H23]	29.8	379 nM	11300 nM
